This passage reports MIC and CC50 results from ChEMBL document CHEMBL4513161, “CO-ADD screening of MMV (CH) - Pandemic Response Box” (2021).

Assay [1] relates to Escherichia coli. Kind of assay: microbe, parasite or virus in culture. The following applies: ATCC 25922, 18 h, ASSAY_TEST Inhibition of Bacterial Growth, detection method Absorption (OD600), MEDIA CAMHB, plate type 384well, NBS, CORNING #3640.
Description: Antibacterial activity against Escherichia coli ATCC 25922 (CO-ADD:GN_001); MIC in CAMBH media using NBS plates, by OD(600)
In assay [2] the test system is Candida albicans. Nature of the assay: microbe, parasite or virus in culture. The settings on record: ATCC 90028, ASSAY_TEST Inhibition of Fungal Growth, detection method Absorption (OD530), plate type 384well, NBS, CORNING #3640.
Description: Antifungal activity against Candida albicans ATCC 90028 (CO-ADD:FG_001); MIC in YNB media using NBS plates, by OD630
Assay [3] concerns Pseudomonas aeruginosa. Nature of the assay: microbe, parasite or virus in culture. The following applies: ATCC 27853, 18 h, ASSAY_TEST Inhibition of Bacterial Growth, detection method Absorption (OD600), MEDIA CAMHB, plate type 384well, NBS, CORNING #3640.
Description: Antibacterial activity against Pseudomonas aeruginosa ATCC 27853 (CO-ADD:GN_042); MIC in CAMBH media using NBS plates, by OD(600)
The test system of assay [4] is Pseudomonas aeruginosa. Nature of the assay: Antibacterial activity against Pseudomonas aeruginosa PAO397 [PAO1 d(mexAB-oprM) d(mexCD-oprJ) d(mexEF-oprN) d(mexJKL) d(mexXY) d(opmH)] (CO-ADD:GN_211); MIC in CAMBH media using NBS plates, by OD(600). The assay is classed as functional. The settings on record: ASSAY_TEST Inhibition of Bacterial Growth, detection method Absorption (OD600), MEDIA CAMHB, plate type 384well, CORNING #3640, time 18 hr.

Assay [5] has as its system HEK293. Kind of assay: cells. The assay is classed as functional, Homo sapiens, ATCC CRL1573. The settings on record: Homo sapiens, ATCC CRL1573, HEK293; ASSAY_TEST Inhibition of Cell Viability; detection method Resazurin; Fluorescence (ex560/em590); MEDIA DMEM with 10% FBS; plate type 384well; TC; CORNING #3712; time 18 hr; read-out: CC50. For orientation: The colour change of resazurin is a common sign of viable cells or microbes.

The subject of assay [6] is Acinetobacter baumannii. Kind of assay: microbe, parasite or virus in culture. The following applies: ATCC 19606, 18 h, ASSAY_TEST Inhibition of Bacterial Growth, detection method Absorption (OD600), MEDIA CAMHB, plate type 384well, NBS, CORNING #3640.
Description: Antibacterial activity against Acinetobacter baumannii ATCC 19606 (CO-ADD:GN_034); MIC in CAMBH media using NBS plates, by OD600
In assay [7] the test system is Staphylococcus aureus. Kind of assay: microbe, parasite or virus in culture. The following applies: ATCC 43300, 18 h, ASSAY_TEST Inhibition of Bacterial Growth, detection method Absorption (OD600), MEDIA CAMHB, plate type 384well, NBS, CORNING #3640.
Description: Antibacterial activity against Staphylococcus aureus MRSA ATCC 43300 (CO-ADD:GP_020); MIC in CAMBH media, using NBS plates, by OD(600)
For assay [8], the system named is Klebsiella pneumoniae. Nature of the assay: microbe, parasite or virus in culture. The settings on record: ATCC 700603, 18 h, ASSAY_TEST Inhibition of Bacterial Growth, detection method Absorption (OD600), MEDIA CAMHB, plate type 384well, NBS, CORNING #3640.
Description: Antibacterial activity against Klebsiella pneumoniae MDR ATCC 70063 (CO-ADD:GN_003); MIC in CAMBH media using NBS plates, by OD(600)
The subject of assay [9] is Cryptococcus neoformans.
Description: Antifungal activity against Cryptococcus neoformans H99 ATCC 208821 (CO-ADD:FG_002); MIC in YNB media using NBS plates, by Resazurin OD(600-570)

In brackets after ≈: the same amount, converted by molar mass.

With `O=P(O)(O)C(CCCc1cccc(Oc2ccccc2)c1)S(=O)(=O)O` (centres undefined), the MIC in assay [1], in [2], in assay [3], in assay [4], in assay [6] and in assay [7] was greater than 20 µM each time. In addition, the MIC in [8] and in [9] was greater than 20 µM each time. Moreover, in assay [5], the CC50 (usually the concentration that lowers cell viability or growth by half) is greater than 20 µM.
Consider `COc1ccccc1NC(=O)c1ccccc1Sc1ccc([N+](=O)[O-])cc1`, for which the MIC in assay [1], in assay [2], in [3], in assay [4], in assay [6] and in assay [7] was greater than 20 µM throughout. The MIC in assay [8] and in assay [9] was greater than 20 µM in each case. In assay [5], the CC50 is greater than 20 µM.
Regarding `Nc1nc(NC2Cc3ccc(F)cc3C2)nc(N2CCCCC2)n1` (centres undefined), the MIC in assay [1], in [2], in [3], in assay [4], in assay [6] and in assay [7] was greater than 20 µM throughout. Also, the MIC in assay [8] and in assay [9] was greater than 20 µM each time. Moreover, the cytotoxic concentration (CC50) in assay [5] was greater than 20 µM.
Regarding `CC(C)Nc1ncnc2c1cnn2-c1ccc(Cl)cc1`, the MIC in assay [1], in assay [2], in [3], in assay [4], in [6] and in assay [7] was greater than 20 µM in each case. For the same compound, the MIC in assay [8] and in [9] was greater than 20 µM in each case. The CC50 in [5] is greater than 20 µM.
As for `CCOc1ccc(C(=O)NCCc2ccccc2)cc1`, the MIC in assay [1], in [2], in [3], in [4], in [6] and in assay [7] was greater than 20 µM in each case. Moreover, the MIC in [8] and in assay [9] was greater than 20 µM in each case. The CC50 in assay [5] is greater than 20 µM.
In the case of `Nc1c(C(=O)NCc2ccco2)c2nc3ccccc3nc2n1CCN1CCCCC1`, the MIC in assay [1], in assay [2], in assay [3], in [4], in assay [6] and in [7] was greater than 20 µM in each case. The MIC in [8] and in assay [9] was greater than 20 µM each time. For the same compound, in [5], the CC50 is greater than 20 µM.
`COc1c(F)c(F)cc2c(=O)c(C(=O)O)cn(C3CC3)c12`: the MIC in assay [1] was 2.5 µM (≈ 0.738 µg/mL); in assay [2] it was greater than 20 µM; in assay [3], 10 µM (≈ 2.95 µg/mL); in assay [4] it was 5 µM (≈ 1.48 µg/mL); in [6], greater than 20 µM; in assay [7] it was 20 µM (≈ 5.9 µg/mL). Further, the MIC in [8] and in assay [9] was greater than 20 µM each time. The cytotoxic concentration (CC50) in assay [5] is greater than 20 µM.
`CCc1c(O)nc2ccc(F)cc2c1OCC1CCC1`: the MIC in assay [1], in [2], in assay [3], in assay [4], in [6] and in assay [7] was greater than 20 µM throughout. Also, the MIC in assay [8] and in assay [9] was greater than 20 µM in each case. Besides, the CC50 in assay [5] was greater than 20 µM.
On to `C[C@H](NC(CC(=O)c1ccccc1C(F)(F)F)C(=O)O)c1ccccc1` (some centres undefined), for which the MIC in [1], in [2], in assay [3], in assay [4], in assay [6] and in assay [7] was greater than 20 µM each time. The MIC in assay [8] and in assay [9] was greater than 20 µM throughout. Further, the CC50 in assay [5] is greater than 20 µM.
Turning to `CCOc1noc2cc(OCCC3CCN(c4ccc(C)nn4)CC3)ccc12`, the MIC in assay [1], in assay [2], in [3], in assay [4], in assay [6] and in assay [7] was greater than 20 µM throughout. Moreover, the MIC in assay [8] and in assay [9] was greater than 20 µM each time. Moreover, the CC50 in assay [5] is greater than 20 µM.
In the case of `Nc1cc(-c2nc3ccccc3[nH]2)n[nH]c1=O`, the MIC in [1], in assay [2], in assay [3], in [4], in assay [6] and in assay [7] was greater than 20 µM in each case. In addition, the MIC in assay [8] and in assay [9] was greater than 20 µM each time. The cytotoxic concentration (CC50) in [5] is greater than 20 µM.
For the compound `CCc1cc(O)c(Oc2ccc(C(N)=O)cc2F)cc1F`, the MIC in assay [1] was 2.5 µM (≈ 0.733 µg/mL); in [2] it was greater than 20 µM; in assay [3] it was 10 µM (≈ 2.93 µg/mL); in [4] it was greater than 20 µM; in [6] it was greater than 20 µM; in [7], no more than 0.156 µM. The MIC in assay [8] and in assay [9] was greater than 20 µM throughout. Besides, the CC50 in assay [5] was greater than 20 µM.
Take `O=C(CC1Sc2ncnn2C1=O)Nc1ccc(Br)cc1` (centres undefined): the MIC in [1] was greater than 20 µM; in [2], 20 µM (≈ 7.06 µg/mL); in assay [3] it was greater than 20 µM; in assay [4] it was greater than 20 µM; in assay [6], greater than 20 µM; in [7] it was greater than 20 µM. In addition, the MIC in assay [8] is greater than 20 µM; in [9], 10 µM (≈ 3.53 µg/mL). Further, in [5], the CC50 is greater than 20 µM.
For `Cc1cc(C)n2nc(C(=O)NS(=O)(=O)c3c(C)cccc3OC(F)(F)F)nc2n1`, the MIC in [1], in assay [2], in assay [3], in assay [4], in [6] and in assay [7] was greater than 20 µM each time. Also, the MIC in assay [8] and in [9] was greater than 20 µM in each case. In addition, in [5], the CC50 is greater than 20 µM.
Take `O=C(Cn1cnc2ccccc2c1=O)Nc1ccccc1`: the MIC in assay [1], in assay [2], in assay [3], in [4], in assay [6] and in assay [7] was greater than 20 µM throughout. Besides, the MIC in [8] and in assay [9] was greater than 20 µM throughout. Further, the CC50 in assay [5] is greater than 20 µM.
For `CCC(C)NCC(O)Cn1c2ccc(Cl)cc2c2cc(Cl)ccc21` (centres undefined), the MIC was greater than 20 µM in assay [1]; greater than 20 µM in assay [2]; greater than 20 µM in assay [3]; greater than 20 µM in assay [4]; greater than 20 µM in assay [6]; 20 µM (≈ 7.31 µg/mL) in assay [7]. Further, the MIC in assay [8] and in assay [9] was greater than 20 µM each time. Also, the CC50 in assay [5] amounted to 6.84 µM.
`CC(=O)Nc1cc(NS(=O)(=O)c2ccc(Cl)cc2)cc2c(Cl)[nH]nc12`: the MIC in assay [1], in assay [2], in [3], in assay [4], in assay [6] and in assay [7] was greater than 20 µM in each case. The MIC in [8] and in [9] was greater than 20 µM throughout. In addition, the 50% cytotoxic concentration (CC50) in assay [5] was greater than 20 µM.
In the case of `O=S(=O)(NCB(O)O)c1ccc(-c2nnn[nH]2)cc1C(F)(F)F`, the MIC in assay [1], in assay [2], in [3], in [4], in assay [6] and in assay [7] was greater than 20 µM throughout. Besides, the MIC in assay [8] and in [9] was greater than 20 µM throughout. Moreover, the half-maximal cytotoxic concentration (CC50) in assay [5] was greater than 20 µM.
Take `CCc1ccccc1OCCN1CCCCCC1`: the MIC in assay [1], in [2], in assay [3], in assay [4], in assay [6] and in [7] was greater than 20 µM each time. The MIC in [8] and in assay [9] was greater than 20 µM in each case. Also, the CC50 in assay [5] was greater than 20 µM.
On to `O=C(/C=C/n1cnc(-c2cc(C(F)(F)F)cc(C(F)(F)F)c2)n1)NNc1cnccn1`, for which the MIC in assay [1], in assay [2], in assay [3], in assay [4], in assay [6] and in assay [7] was greater than 20 µM each time. Further, the MIC in [8] and in assay [9] was greater than 20 µM in each case. For the same compound, the CC50 in assay [5] was greater than 20 µM.
With `CCNC(=O)Nc1cn2c(-c3ncc(CC)cn3)cc(-c3cccnc3)cc2n1`, the MIC in assay [1], in assay [2], in [3], in assay [4], in assay [6] and in assay [7] was greater than 20 µM throughout. In addition, the MIC in assay [8] and in assay [9] was greater than 20 µM throughout. In assay [5], the CC50 was greater than 20 µM.
